Laboratory results: BindingDB's records for doi:10.1002/cbic.201200279 (University of Southampton, 2012)
Square brackets hold non-standard residues; d marks the D form. Peptide text beside a SMILES is read from it. NMeY = CN[C@@H](Cc1ccc(O)cc1)C(=O)O

Target: Bifunctional purine biosynthesis protein ATIC (Homo sapiens, UniProt P31939)
Assay: Enzyme Inhibition Assay
Conditions: 25 °C
Description: Enzyme inhibition using aminoimidazole carboxamide ribonucleotide transformylase/inosine monophosphate cyclohydrolase (ATIC).

Sequence of Bifunctional purine biosynthesis protein ATIC (P31939 whole entry): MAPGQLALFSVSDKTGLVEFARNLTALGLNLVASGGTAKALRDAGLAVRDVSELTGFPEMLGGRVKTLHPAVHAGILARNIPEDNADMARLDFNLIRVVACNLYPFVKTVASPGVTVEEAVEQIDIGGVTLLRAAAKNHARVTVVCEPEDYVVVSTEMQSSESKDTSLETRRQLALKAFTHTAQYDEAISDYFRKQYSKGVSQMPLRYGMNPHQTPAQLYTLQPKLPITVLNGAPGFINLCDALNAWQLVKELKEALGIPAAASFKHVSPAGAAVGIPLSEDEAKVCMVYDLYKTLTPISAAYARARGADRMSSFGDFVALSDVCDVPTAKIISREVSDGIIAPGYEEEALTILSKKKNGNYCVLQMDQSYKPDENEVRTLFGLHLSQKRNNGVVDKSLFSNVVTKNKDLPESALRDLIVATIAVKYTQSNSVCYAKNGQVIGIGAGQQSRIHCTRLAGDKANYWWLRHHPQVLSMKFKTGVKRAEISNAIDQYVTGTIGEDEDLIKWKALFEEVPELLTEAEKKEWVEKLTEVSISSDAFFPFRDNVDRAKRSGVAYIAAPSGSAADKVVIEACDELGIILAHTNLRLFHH

| Structure (SMILES) | Ki [µM] |
| --- | --- |
| CCNC(=O)[C@H](Cc1ccc(O)cc1)NC(=O)[C@H](CCCN=C(N)N)NC(C)=O [RY Analogue, 8] (Ac-Arg-Tyr-NHEt) | 84 |
| CCNC(=O)[C@H](Cc1ccccc1)NC(=O)[C@H](CCCN=C(N)N)NC(C)=O [RY Analogue, 9] | 339 |
| CCNC(=O)[C@H](Cc1ccc(F)cc1)NC(=O)[C@H](CCCN=C(N)N)NC(C)=O [RY Analogue, 10] | 135 |
| CCNC(=O)[C@H](Cc1ccc(OC)cc1)NC(=O)[C@H](CCCN=C(N)N)NC(C)=O [RY Analogue, 11] (Ac-Arg-Tyr(Me)-NHEt) | 87 |
| CCNC(=O)[C@H](Cc1ccc(C#N)cc1)NC(=O)[C@H](CCCN=C(N)N)NC(C)=O [RY Analogue, 12] | 56 |
| CCNC(=O)[C@H](Cc1ccc(B(O)O)cc1)NC(=O)[C@H](CCCN=C(N)N)NC(C)=O [RY Analogue, 13] | 59 |
| CCNC(=O)[C@H](Cc1ccc([N+](=O)[O-])cc1)NC(=O)[C@H](CCCN=C(N)N)NC(C)=O [RY Analogue, 14] | 0.685 |
| CCNC(=O)[C@H](Cc1ccc(O)cc1)N(C)C(=O)[C@H](CCCN=C(N)N)NC(C)=O [RY Analogue, 16] (Ac-Arg-[NMeY]-NHEt) | 145 |
| CCNC(=O)[C@H](Cc1ccc([N+](=O)[O-])cc1)N(C)C(=O)[C@H](CCCN=C(N)N)NC(C)=O [RY Analogue, 17] | 2.5 |
